SMILES strings stand for the structures.

For assay [1], the target named is T1, androgen receptor (AR-LBD) (Rattus norvegicus, UniProt P15207).
T1 construct: 5 μL of 2×AR-LBD/Fluoromone AL Red Complex contained in the kit; purchased Invitrogen
T1 sequence (P15207 651-882 limits assumed): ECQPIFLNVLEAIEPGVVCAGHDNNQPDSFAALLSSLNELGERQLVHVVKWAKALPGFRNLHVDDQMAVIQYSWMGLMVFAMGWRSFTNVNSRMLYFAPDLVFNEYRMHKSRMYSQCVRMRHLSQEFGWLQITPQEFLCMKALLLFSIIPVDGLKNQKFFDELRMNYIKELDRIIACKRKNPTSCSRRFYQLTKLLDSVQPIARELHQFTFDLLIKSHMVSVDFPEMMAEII
Kind of assay: Evaluation of androgen receptor affinity (PolarScreen Androgen Receptor Competitor Assay Kit, Red; fluorescence polarization). To be noted: 22° C. for 5 hours, relative to binding rate of 1 μM DHT, read-out: AR affinity (pEC50) (converted). The method in brief:
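Test compound and the 2× AR-LBD/Fluoromone AL Red complex were combined in duplicate wells. After reacting 5 h at 22° C, polarization was measured. pEC50 was derived by 4-parameter fitting, normalizing to binding obtained with 1 μM dihydrotestosterone.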

A further assay deals with T2, human androgen receptor (Homo sapiens, UniProt P10275).
T2 construct: expressed in transfected cells; host or cells: HEK293
T2 sequence (P10275 1-920): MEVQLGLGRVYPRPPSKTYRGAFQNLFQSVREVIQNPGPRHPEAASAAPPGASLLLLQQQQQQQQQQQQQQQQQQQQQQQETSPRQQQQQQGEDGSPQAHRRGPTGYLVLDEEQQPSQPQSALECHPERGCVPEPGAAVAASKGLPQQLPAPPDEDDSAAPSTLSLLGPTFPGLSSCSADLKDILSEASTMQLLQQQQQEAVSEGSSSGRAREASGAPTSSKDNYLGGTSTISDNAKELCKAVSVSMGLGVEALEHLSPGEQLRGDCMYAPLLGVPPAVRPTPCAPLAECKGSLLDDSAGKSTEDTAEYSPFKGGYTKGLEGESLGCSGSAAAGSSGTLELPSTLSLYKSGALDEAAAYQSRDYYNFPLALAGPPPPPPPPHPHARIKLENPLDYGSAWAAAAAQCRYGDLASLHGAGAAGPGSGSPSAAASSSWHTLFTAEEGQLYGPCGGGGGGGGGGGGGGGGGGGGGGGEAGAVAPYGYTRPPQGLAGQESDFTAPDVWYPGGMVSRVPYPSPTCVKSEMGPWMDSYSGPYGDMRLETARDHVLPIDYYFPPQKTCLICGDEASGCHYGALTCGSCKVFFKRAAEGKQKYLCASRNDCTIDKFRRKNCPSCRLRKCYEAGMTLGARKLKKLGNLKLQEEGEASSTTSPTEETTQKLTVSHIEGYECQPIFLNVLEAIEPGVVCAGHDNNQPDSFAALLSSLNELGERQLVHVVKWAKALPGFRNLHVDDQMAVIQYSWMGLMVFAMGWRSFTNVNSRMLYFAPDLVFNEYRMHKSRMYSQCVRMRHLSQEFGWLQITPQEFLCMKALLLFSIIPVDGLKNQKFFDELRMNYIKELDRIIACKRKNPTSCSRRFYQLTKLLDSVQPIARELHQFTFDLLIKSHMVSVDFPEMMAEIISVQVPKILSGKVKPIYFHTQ
Kind of assay: Reporter assay of an androgen receptor responsive sequence (luciferase, transiently transfected HEK293 cells). To be noted: 24 hours incubation, relative to activity of 100 nM DHT, read-out: AR transcriptive activity (pEC50) (converted). Type of assay: cell-based. A digest of the protocol:
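Agonism scored as pEC50, fitted by 4-parameter curve against the response to 100 nM DHT, from dual-luciferase readout after 24 h compound treatment. Cells were HEK293 co-transfected (3 h) with human AR expression vector, androgen-responsive firefly reporter and Renilla control, in charcoal-stripped serum.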
(In general: Reporter assays use an easily measured gene product as a stand-in for the process of interest.)

For `Cc1sc(N(Cc2cc(F)cc3cccnc23)c2ccc(C#N)cc2)nc1C(=O)NS(C)(=O)=O` [Example 174, 2-[4-cyano-N-[(6-fluoro-8-quinolyl)methyl]anilino]-5-methyl-N-methylsulfonyl-thiazole-4-carboxamide], the values for the EC50 (in assay [1]; at human androgen receptor) were 100 nM and 316 nM, respectively.
As for `Cc1sc(N(Cc2ccc(F)c3cccnc23)c2ccc(C#N)cc2)nc1C(=O)NS(C)(=O)=O` [Example 175, 2-[4-cyano-N-[(5-fluoro-8-quinolyl)methyl]anilino]-5-methyl-N-methylsulfonyl-thiazole-4-carboxamide], the EC50 in assay [1] was 79.4 nM; at human androgen receptor, 126 nM.
As for `Cc1sc(N(Cc2ccc(F)cc2OC(F)F)c2ccc(C#N)cc2)nc1C(=O)NS(C)(=O)=O` [Example 176, 2-[4-cyano-N-[[2-(difluoromethoxy)-4-fluoro-phenyl]methyl]anilino]-5-methyl-N-methylsulfonyl-thiazole-4-carboxamide], the EC50 in assay [1] is 63.1 nM; at human androgen receptor it was 501 nM.
For the compound `Cc1sc(N(Cc2ccc(F)cc2Br)c2ccc(C#N)cc2)nc1C(=O)NS(C)(=O)=O` [Example 177, 2-[N-[(2-bromo-4-fluoro-phenyl)methyl]-4-cyano-anilino]-5-methyl-N-methylsulfonyl-thiazole-4-carboxamide], the values for the EC50 (in assay [1]; on human androgen receptor) were 79.4 nM and 501 nM, respectively.
Take `Cc1sc(N(Cc2ccc(OC(F)(F)F)cc2F)c2ccc(C#N)cc2)nc1C(=O)NS(C)(=O)=O` [Example 178, 2-[4-cyano-N-[[2-fluoro-4-(trifluoromethoxy)phenyl]methyl]anilino]-5-methyl-N-methylsulfonyl-thiazole-4-carboxamide]: the EC50 is 39.8 nM in assay [1] and 501 nM at human androgen receptor.
In the case of `Cc1sc(N(Cc2ncc(F)cc2Cl)c2ccc(C#N)cc2)nc1C(=O)NS(C)(=O)=O` [Example 179, 2-[N-[(3-chloro-5-fluoro-2-pyridyl)methyl]-4-cyano-anilino]-5-methyl-N-methylsulfonyl-thiazole-4-carboxamide], the EC50 in assay [1] was 501 nM; on human androgen receptor it was 1000 nM.
For `Cc1sc(N(Cc2ncc(Cl)cc2Cl)c2ccc(C#N)cc2)nc1C(=O)NS(C)(=O)=O` [Example 180, 2-[4-cyano-N-[(3,5-dichloro-2-pyridyl)methyl]anilino]-5-methyl-N-methylsulfonyl-thiazole-4-carboxamide] the same measures were 251 nM and 501 nM.
Turning to `Cc1sc(N(Cc2ccc(Br)c(F)c2)c2ccc(C#N)cc2)nc1C(=O)NS(C)(=O)=O` [Example 181, 2-[N-[(4-bromo-3-fluoro-phenyl)methyl]-4-cyano-anilino]-5-methyl-N-methylsulfonyl-thiazole-4-carboxamide], the EC50 was 31.6 nM in assay [1] and 25.1 nM at human androgen receptor.
For `Cc1sc(N(Cc2ccc(Br)cc2C#N)c2ccc(C#N)cc2)nc1C(=O)NS(C)(=O)=O` [Example 182, 2-[N-[(4-bromo-2-cyano-phenyl)methyl]-4-cyano-anilino]-5-methyl-N-methylsulfonyl-thiazole-4-carboxamide] the same measures were 631 nM and more than 10000 nM.
`Cc1sc(N(Cc2ccc(Br)cc2Cl)c2ccc(C#N)cc2)nc1C(=O)NS(C)(=O)=O` [Example 183, 2-[N-[(4-bromo-2-chloro-phenyl)methyl]-4-cyano-anilino]-5-methyl-N-methylsulfonyl-thiazole-4-carboxamide]: the figures for the EC50 (in assay [1]; at human androgen receptor) were 63.1 nM and 501 nM, respectively.
Regarding `Cc1sc(N(Cc2ccc(Cl)cc2C#N)c2ccc(C#N)cc2)nc1C(=O)NS(C)(=O)=O` [Example 184, 2-[N-[(4-chloro-2-cyano-phenyl)methyl]-4-cyano-anilino]-5-methyl-N-methylsulfonyl-thiazole-4-carboxamide], the values for the EC50 (in assay [1]; at human androgen receptor) were 501 nM and more than 10000 nM, respectively.
For `Cc1sc(N(Cc2ccc(Br)cc2F)c2ccc(C#N)cc2)nc1C(=O)NS(C)(=O)=O` [Example 185, 2-[N-[(4-bromo-2-fluoro-phenyl)methyl]-4-cyano-anilino]-5-methyl-N-methylsulfonyl-thiazole-4-carboxamide], in that order: 39.8 nM and 63.1 nM.
For `Cc1sc(N(Cc2cc(C(F)(F)F)ccn2)c2ccc(C#N)cc2)nc1C(=O)NS(C)(=O)=O` [Example 186, 2-[4-cyano-N-[[4-(trifluoromethyl)-2-pyridyl]methyl]anilino]-5-methyl-N-methylsulfonyl-thiazole-4-carboxamide] the same measures were 200 nM and 631 nM.
For `Cc1sc(N(Cc2ccc(C(F)(F)F)c(C#N)c2)c2ccc(C#N)cc2)nc1C(=O)NS(C)(=O)=O` [Example 187, 2-[4-cyano-N-[[3-cyano-4-(trifluoromethyl)phenyl]methyl]anilino]-5-methyl-N-methylsulfonyl-thiazole-4-carboxamide], in that order: 63.1 nM and 79.4 nM.
Take `COCCCS(=O)(=O)NC(=O)c1nc(N(Cc2ccc(Br)cn2)c2ccc(C#N)cc2)sc1C` [Example 188, 2-[N-[(5-bromo-2-pyridyl)methyl]-4-cyano-anilino]-N-(3-methoxypropylsulfonyl)-5-methyl-thiazole-4-carboxamide]: the EC50 was 316 nM in assay [1] and 200 nM on human androgen receptor.
For `COCCCS(=O)(=O)NC(=O)c1nc(N(Cc2ccc(OC(F)F)c(Cl)c2)c2ccc(C#N)cc2)sc1C` [Example 189, 2-[N-[[3-chloro-4-(difluoromethoxy)phenyl]methyl]-4-cyano-anilino]-N-(3-methoxypropylsulfonyl)-5-methyl-thiazole-4-carboxamide] the same measures were 31.6 nM and 158 nM.
For `COCCCS(=O)(=O)NC(=O)c1nc(N(Cc2ccc(Cl)c(Cl)c2)c2ccc(C#N)cc2)sc1C` [Example 190, 2-[4-cyano-N-[(3,4-dichlorophenyl)methyl]anilino]-N-(3-methoxypropylsulfonyl)-5-methyl-thiazole-4-carboxamide] the same measures were 15.8 nM and 63.1 nM.
For `COCCCS(=O)(=O)NC(=O)c1nc(N(Cc2ccc(Br)cc2)c2ccc(C#N)cc2)sc1C` [Example 191, 2-[N-[(4-bromophenyl)methyl]-4-cyano-anilino]-N-(3-methoxypropylsulfonyl)-5-methyl-thiazole-4-carboxamide], in that order: 31.6 nM and 50.1 nM.
On to `COCCCS(=O)(=O)NC(=O)c1nc(N(Cc2ccc(F)cc2Cl)c2ccc(C#N)cc2)sc1C` [Example 192, 2-[N-[(2-chloro-4-fluoro-phenyl)methyl]-4-cyano-anilino]-N-(3-methoxypropylsulfonyl)-5-methyl-thiazole-4-carboxamide], for which the EC50 in assay [1] was 63.1 nM; on human androgen receptor it was 1260 nM.
In the case of `Cc1sc(N(Cc2ccc(Cl)cc2OC(F)F)c2ccc(C#N)cc2)nc1C(=O)NS(C)(=O)=O` [Example 193, 2-[N-[[4-chloro-2-(difluoromethoxy)phenyl]methyl]-4-cyano-anilino]-5-methyl-N-methylsulfonyl-thiazole-4-carboxamide], the EC50 in assay [1] was 31.6 nM; at human androgen receptor it was 501 nM.
For `COCCCS(=O)(=O)NC(=O)c1nc(N(Cc2ccc(Cl)cc2OC(F)F)c2ccc(C#N)cc2)sc1C` [Example 194, 2-[N-[[4-chloro-2-(difluoromethoxy)phenyl]methyl]-4-cyano-anilino]-N-(3-methoxypropylsulfonyl)-5-methyl-thiazole-4-carboxamide], in that order: 63.1 nM and 2510 nM.
In the case of `COCCCS(=O)(=O)NC(=O)c1nc(N(Cc2ccc3ncsc3c2)c2ccc(C#N)cc2)sc1C` [Example 195, 2-[N-(1,3-benzothiazol-6-ylmethyl)-4-cyano-anilino]-N-(3-methoxypropylsulfonyl)-5-methyl-thiazole-4-carboxamide], the EC50 is 158 nM in assay [1] and 126 nM on human androgen receptor.

The values above are taken from patent US10689354B2, “Aminoazole derivative” (Teijin Pharma Limited, priority 2015, dated 2020).
